Test system: mild to moderate AD patients
Test: Phase 3 trial in mild to moderate AD: safety outcomes (adverse events)
Format: in vivo, human
Settings: for Maximum mean change in haemoglobin from baseline: at 6 weeks
Experimental: Patients were monitored throughout for adverse events (AEs) and clinical laboratory testing, physical and neurological examinations and 12-lead electrocardiograms were performed at all clinic visits (screening, baseline and Weeks 2, 6, 13, 26, 39, 52, 65 and 69). Patients were also assessed at all visits for suicidal ideation and intent, and were systematically assessed for signs of serotonin toxicity.

[1] = high dose LMTM (75 or 125 mg b.i.d.)

## CN(C)c1ccc2c(c1)Sc1cc(N(C)C)ccc1N2 [LMTM, leuco-methythioninium bis(hydromethanesulfonate)]
4 mg b.i.d.
  Maximum mean change in haemoglobin from baseline: -0.01 g/L
75 mg b.i.d. (n = 267)
  AESI: ARIA, %: (1.5) %
  AESI: Methemoglobinemia, hemolytic anemia, and/or Heinz bodies, %: (0) %
  AESI: “Serotonin syndrome”, %: (0.7) %
  Anemia, % of patients: (8.2%)
  Anemia, number of patients: 22
  At least one TEAE, % of patients: (83.9%)
  At least one TEAE, number of patients: 224
  Blood and lymphatic system disorders, % of patients: (10.9%)
  Blood and lymphatic system disorders, number of patients: 29
  Blood folate decreased, % of patients: (6.7%)
  Blood folate decreased, number of patients: 18
  Cough, % of patients: (5.2%)
  Cough, number of patients: 14
  Deaths, %: (1.1) %
  Diarrhea, % of patients: (23.6%)
  Diarrhea, number of patients: 63
  Dysuria, % of patients: (2.6%)
  Dysuria, number of patients: 7
  Gastrointestinal disorders, % of patients: (39.3%)
  Gastrointestinal disorders, number of patients: 105
  Infections and infestations, % of patients: (31.1%)
  Infections and infestations, number of patients: 83
  Investigations, % of patients: (32.6%)
  Investigations, number of patients: 87
  Nausea, % of patients: (8.2%)
  Nausea, number of patients: 22
  Other SUSARs, %: (0.7) %
  Pollakiuria, % of patients: (5.6%)
  Pollakiuria, number of patients: 15
  Renal and urinary disorders, % of patients: (22.8%)
  Renal and urinary disorders, number of patients: 61
  Respiratory, thoracic and mediastinal disorders, % of patients: (12.0%)
  Respiratory, thoracic and mediastinal disorders, number of patients: 32
  Urinary incontinence, % of patients: (6.7%)
  Urinary incontinence, number of patients: 18
  Urinary tract infection, % of patients: (10.9%)
  Urinary tract infection, number of patients: 29
  Vomiting, % of patients: (9.4%)
  Vomiting, number of patients: 25
75 mg b.i.d.
  Maximum mean change in haemoglobin from baseline: -0.47 g/L
125 mg b.i.d. (n = 264)
  AESI: ARIA, %: (0.4) %
  AESI: Methemoglobinemia, hemolytic anemia, and/or Heinz bodies, %: (0.4) %
  AESI: “Serotonin syndrome”, %: (0) %
  Anemia, % of patients: (5.7%)
  Anemia, number of patients: 15
  At least one TEAE, % of patients: (86.7%)
  At least one TEAE, number of patients: 229
  Blood and lymphatic system disorders, % of patients: (9.5%)
  Blood and lymphatic system disorders, number of patients: 25
  Blood folate decreased, % of patients: (7.2%)
  Blood folate decreased, number of patients: 19
  Cough, % of patients: (4.2%)
  Cough, number of patients: 11
  Deaths, %: (1.1) %
  Diarrhea, % of patients: (25.4%)
  Diarrhea, number of patients: 67
  Dysuria, % of patients: (10.2%)
  Dysuria, number of patients: 27
  Gastrointestinal disorders, % of patients: (42.0%)
  Gastrointestinal disorders, number of patients: 111
  Infections and infestations, % of patients: (28.8%)
  Infections and infestations, number of patients: 76
  Investigations, % of patients: (30.3%)
  Investigations, number of patients: 80
  Nausea, % of patients: (7.2%)
  Nausea, number of patients: 19
  Other SUSARs, %: (1.5) %
  Pollakiuria, % of patients: (6.8%)
  Pollakiuria, number of patients: 18
  Renal and urinary disorders, % of patients: (24.6%)
  Renal and urinary disorders, number of patients: 65
  Respiratory, thoracic and mediastinal disorders, % of patients: (8.3%)
  Respiratory, thoracic and mediastinal disorders, number of patients: 22
  Urinary incontinence, % of patients: (4.5%)
  Urinary incontinence, number of patients: 12
  Urinary tract infection, % of patients: (9.8%)
  Urinary tract infection, number of patients: 26
  Vomiting, % of patients: (6.8%)
  Vomiting, number of patients: 18
125 mg b.i.d.
  Maximum mean change in haemoglobin from baseline: -0.93 g/L
% of the cases, all arms
  Non-fatal SAEs possibly related to treatment: 14%
All arms
  Patients with transient responses indicating a wish to be dead (Columbia Suicide Severity Rating Scale): 26 patients
All arms, evenly distributed between the three treatment groups
  Patients with one or more other non-fatal serious adverse events (SAEs): 97 patients
All arms, no dose relationship
  Patients who developed ARIA during the study, frequency: < 1%
  Patients who developed ARIA during the study, total: 8 patients
All arms, none related to treatment
  Patients who died during the study: 9 patients
All doses
  Haemolytic anemia cases: no case of haemolytic anemia
Both treated with LMTM 75 mg b.i.d., no concomitant serotonergic drug
  Patients with transient symptoms consistent with serotonergic excess: 2 patients
Control 4 mg b.i.d. (n = 354)
  AESI: ARIA, %: (0.8) %
  AESI: Methemoglobinemia, hemolytic anemia, and/or Heinz bodies, %: (0.3) %
  AESI: “Serotonin syndrome”, %: (0) %
  Anemia, % of patients: (2.8%)
  Anemia, number of patients: 10
  At least one TEAE, % of patients: (83.6%)
  At least one TEAE, number of patients: 296
  Blood and lymphatic system disorders, % of patients: (4.8%)
  Blood and lymphatic system disorders, number of patients: 17
  Blood folate decreased, % of patients: (5.9%)
  Blood folate decreased, number of patients: 21
  Cough, % of patients: (3.4%)
  Cough, number of patients: 12
  Deaths, %: (0.8) %
  Diarrhea, % of patients: (9.3%)
  Diarrhea, number of patients: 33
  Dysuria, % of patients: (0.8%)
  Dysuria, number of patients: 3
  Gastrointestinal disorders, % of patients: (24.6%)
  Gastrointestinal disorders, number of patients: 87
  Infections and infestations, % of patients: (24.9%)
  Infections and infestations, number of patients: 88
  Investigations, % of patients: (22.6%)
  Investigations, number of patients: 80
  Nausea, % of patients: (4.0%)
  Nausea, number of patients: 14
  Other SUSARs, %: (0.6) %
  Pollakiuria, % of patients: (1.7%)
  Pollakiuria, number of patients: 6
  Renal and urinary disorders, % of patients: (8.2%)
  Renal and urinary disorders, number of patients: 29
  Respiratory, thoracic and mediastinal disorders, % of patients: (7.9%)
  Respiratory, thoracic and mediastinal disorders, number of patients: 28
  Urinary incontinence, % of patients: (2.5%)
  Urinary incontinence, number of patients: 9
  Urinary tract infection, % of patients: (8.2%)
  Urinary tract infection, number of patients: 29
  Vomiting, % of patients: (0.6%)
  Vomiting, number of patients: 2
Control (4 mg b.i.d.)
  Patients with anaemia-related adverse event terms (grouped): 16%
Control arm (4 mg b.i.d.)
  Convulsion (SAE possibly related to treatment), cases: 4
Control patients (4 mg b.i.d.)
  Patients discontinuing for gastrointestinal or urinary adverse events: 1-2%
High dose LMTM
  Patients with anaemia-related adverse event terms (grouped): 22%
[1]
  Patients discontinuing for gastrointestinal adverse events: 9%
  Patients discontinuing for urinary tract adverse events: 3%
Patients also receiving acetylcholinesterase inhibitors (data not shown)
  Incidence of gastrointestinal adverse events with co-medication: about two-fold higher
